In brackets after ≈: the same amount, converted by molar mass. Blank lines part the entries; values can stand above or below the molecule they belong to. Activity calls are given as the source filed them. Unless noted, the rule behind the calls is not given here.
What was measured:
Fusobacterium nucleatum = assay: Antibiofilm activity against Fusobacterium nucleatum ATCC 25586 assessed as inhibition of biofilm formation up to 96 ug/mL after 24 hrs by crystal violet staining based assay; format: functional, organism-based
Porphyromonas gingivalis = assay: Antibiofilm activity against Porphyromonas gingivalis ATCC 33277 assessed as inhibition of biofilm formation up to 96 ug/mL after 24 hrs by crystal violet staining based assay; format: functional, organism-based
[1] = test system: Limosilactobacillus fermentum; assay: Antibiofilm activity against Lactobacillus fermentum LacB1 assessed as inhibition of biofilm formation up to 96 ug/mL after 24 hrs by crystal violet staining based assay; format: functional, organism-based
Listeria monocytogenes = assay: Growth inhibition of Listeria monocytogenes WSLC 1001 incubated for 24 hrs under aerobic condition by microdilution method; format: organism-based; conditions: in vitro
Staphylococcus aureus = assay: Growth inhibition of Staphylococcus aureus ATCC 6538 incubated for 24 hrs under aerobic condition by microdilution method; format: organism-based; conditions: in vitro
Pseudomonas aeruginosa = assay: Growth inhibition of Pseudomonas aeruginosa ATCC 10145 incubated for 24 hrs under aerobic condition by microdilution method; format: organism-based
Escherichia coli = assay: Growth inhibition of Escherichia coli ATCC 15939 incubated for 24 hrs under aerobic condition by microdilution method; format: organism-based
Streptococcus mutans [2] = assay: Antibiofilm activity against Streptococcus mutans ATCC 25175 assessed as inhibition of biofilm formation up to 96 ug/mL after 24 hrs by crystal violet staining-based assay; format: functional, organism-based
Streptococcus mutans [3] = assay: Inhibition of planktonic growth of Streptococcus mutans ATCC 25175 up to 96 ug/mL after 24 hrs relative to control; format: organism-based
Streptococcus mutans [4] = assay: Antibiofilm activity against Streptococcus mutans ATCC 25175 assessed as inhibition of biofilm formation at 6 to 12 ug/mL after 24 hrs by crystal violet staining-based assay; format: functional, organism-based
Actinomyces naeslundii [5] = assay: Antibiofilm activity against Actinomyces naeslundii ATCC 49340 assessed as reduction of biofilm formation at 48 ug/mL after 24 hrs by crystal violet staining based assay; format: functional, organism-based
Candida albicans [6] = assay: Antiadherence activity against FITC-labelled Candida albicans ATCC 28366 assessed as reduction in bacterial adhesion to hydroxylapatite up to 96 ug/mL after 1 hr by fluorescence assay relative to control; format: functional
Streptococcus mutans [7] = assay: Antiadherence activity in FITC-labelled Streptococcus mutans ATCC 25175 assessed as reduction in bacterial adhesion to hydroxylapatite up to 96 ug/mL after 1 hr fluorescence assay; format: functional, organism-based
Streptococcus mutans [8] = assay: Disruption of Streptococcus mutans ATCC 25175 pre-formed mature biofilm assessed as reduction in biofilm biomass at 96 ug/mL after 12 hrs by crystal violet staining based assay; format: functional, organism-based
Candida albicans [9] = assay: Disruption of Candida albicans ATCC 28366 pre-formed mature biofilm assessed as reduction in biofilm biomass at 96 ug/mL after 12 hrs by crystal violet staining based assay; format: functional, organism-based
Actinomyces naeslundii [10] = assay: Antibiofilm activity against Actinomyces naeslundii ATCC 49340 assessed as inhibition of bacterial adhesion up to 96 ug/mL after 24 hrs by crystal violet staining based assay; format: functional, organism-based
Actinomyces naeslundii [11] = assay: Antibiofilm activity against Actinomyces naeslundii ATCC 49340 assessed as prevention of homogenous biofilm formation up to 96 ug/mL after 24 hrs by crystal violet staining based assay; format: functional, organism-based
Candida albicans [12] = assay: Antibiofilm activity against Candida albicans ATCC 28366 assessed as reduction of biofilm formation at 24 to 48 ug/mL after 24 hrs by crystal violet staining based assay; format: functional, organism-based
Candida albicans [13] = assay: Growth inhibition of Candida albicans ATCC 28366 up to 96 ug/ml measured after 24 hrs by microdilution method; format: organism-based; conditions: in vitro
Candida albicans [14] = assay: Antibiofilm activity against Candida albicans ATCC 28366 assessed as reduction of biofilm formation after 24 hrs by crystal violet staining based assay; format: functional, organism-based
Actinomyces naeslundii [15] = assay: Antibiofilm activity against Actinomyces naeslundii ATCC 49340 assessed as reduction of biofilm formation by visual analysis; format: functional, organism-based
Enterococcus faecalis = assay: Antimicrobial activity against vancomycin-resistant Enterococcus faecalis measured after 24 hrs by agar-dilution method; format: functional
[16] = Solubility of the compound in water; format: physicochemical; conditions: buffer
Actinomyces naeslundii [17] = assay: Antibiofilm activity against Actinomyces naeslundii ATCC 49340 assessed as prevention of homogenous biofilm formation at 96 ug/mL after 24 hrs by crystal violet staining-based assay; format: functional, organism-based

Structure (SMILES): O=C1N[C@@H](Cc2ccccc2)C(=O)N[C@H]1Cc1ccccc1
- inhibition (Fusobacterium nucleatum): inactive
- inhibition (Porphyromonas gingivalis): inactive
- inhibition [1]: inactive
- MIC (Listeria monocytogenes): > 192 µg/mL
- MIC (Staphylococcus aureus): > 192 µg/mL
- MIC (Pseudomonas aeruginosa): > 192 µg/mL
- MIC (Escherichia coli): > 192 µg/mL
- inhibition (Streptococcus mutans [2]): inactive
- growth inhibition (GI) (Streptococcus mutans [3]): Non-Toxic

Structure (SMILES): O=C1N[C@H](Cc2ccccc2)C(=O)N[C@@H]1Cc1ccccc1
- inhibition (Fusobacterium nucleatum): inactive
- inhibition (Porphyromonas gingivalis): inactive
- inhibition [1]: inactive
- MIC (Listeria monocytogenes): > 192 µg/mL
- MIC (Staphylococcus aureus): > 192 µg/mL
- MIC (Pseudomonas aeruginosa): > 192 µg/mL
- MIC (Escherichia coli): > 192 µg/mL
- inhibition (Streptococcus mutans [2]): inactive
- growth inhibition (GI) (Streptococcus mutans [3]): Non-Toxic

Structure (SMILES): O=C1N[C@@H](Cc2ccc(OCc3ccccc3)cc2)C(=O)N[C@H]1Cc1ccc(OCc2ccccc2)cc1
- inhibition (Fusobacterium nucleatum): inactive
- inhibition (Porphyromonas gingivalis): inactive
- Activity (Streptococcus mutans [4]): Active
- inhibition [1]: inactive
- inhibition (Actinomyces naeslundii [5]): Active
- Activity (Candida albicans [6]): Active
- Activity (Streptococcus mutans [7]): Active
- MIC (Listeria monocytogenes): > 192 µg/mL
- MIC (Staphylococcus aureus): > 192 µg/mL
- MIC (Pseudomonas aeruginosa): > 192 µg/mL
- MIC (Escherichia coli): > 192 µg/mL
- Activity (Streptococcus mutans [8]): inactive
- Activity (Candida albicans [9]): inactive
- inhibition (Streptococcus mutans [2]): Active
- inhibition (Actinomyces naeslundii [10]): inactive
- Activity (Actinomyces naeslundii [11]): Active
- Activity (Candida albicans [12]): Active
- growth inhibition (GI) (Candida albicans [13]): Non-Toxic
- Activity (Candida albicans [14]): Dose-dependent effect
- growth inhibition (GI) (Streptococcus mutans [3]): Non-Toxic
- inhibition (Actinomyces naeslundii [15]): Active

Structure (SMILES): CC(C)C[C@@H]1NC(=O)[C@@H]2CCCN2C1=O
- inhibition (Fusobacterium nucleatum): inactive
- inhibition (Porphyromonas gingivalis): inactive
- inhibition (Streptococcus mutans [2]): inactive
- growth inhibition (GI) (Streptococcus mutans [3]): Non-Toxic
- MIC (Enterococcus faecalis): 12.5 µg/mL (≈ 59.4 µM)

- solubility [16]: Insoluble
Structure (SMILES): O=C1N[C@H](Cc2ccc(OCc3ccccc3)cc2)C(=O)N[C@H]1Cc1ccccc1
- inhibition (Fusobacterium nucleatum): inactive
- inhibition (Porphyromonas gingivalis): inactive
- inhibition [1]: inactive
- MIC (Listeria monocytogenes): > 192 µg/mL
- MIC (Staphylococcus aureus): > 192 µg/mL
- MIC (Pseudomonas aeruginosa): > 192 µg/mL
- MIC (Escherichia coli): > 192 µg/mL
- inhibition (Streptococcus mutans [2]): inactive
- growth inhibition (GI) (Streptococcus mutans [3]): Non-Toxic

Structure (SMILES): O=C1N[C@@H](Cc2ccc(OCc3ccccc3)cc2)C(=O)N[C@H]1Cc1ccccc1
- inhibition (Fusobacterium nucleatum): inactive
- inhibition (Porphyromonas gingivalis): inactive
- Activity (Streptococcus mutans [4]): Active
- inhibition [1]: inactive
- Activity (Candida albicans [6]): Active
- Activity (Streptococcus mutans [7]): Active
- MIC (Listeria monocytogenes): > 192 µg/mL
- MIC (Staphylococcus aureus): > 192 µg/mL
- MIC (Pseudomonas aeruginosa): > 192 µg/mL
- MIC (Escherichia coli): > 192 µg/mL
- Activity (Streptococcus mutans [8]): inactive
- Activity (Candida albicans [9]): inactive
- inhibition (Streptococcus mutans [2]): Active
- Activity (Candida albicans [12]): Active
- growth inhibition (GI) (Candida albicans [13]): Non-Toxic
- Activity (Candida albicans [14]): Dose-dependent effect
- growth inhibition (GI) (Streptococcus mutans [3]): Non-Toxic
- Activity (Actinomyces naeslundii [17]): inactive

Structure (SMILES): O=C1N[C@H](Cc2ccc(OCc3ccccc3)cc2)C(=O)N[C@@H]1Cc1ccccc1
- inhibition (Fusobacterium nucleatum): inactive
- inhibition (Porphyromonas gingivalis): inactive
- Activity (Streptococcus mutans [4]): Active
- inhibition [1]: inactive
- inhibition (Actinomyces naeslundii [5]): Active
- Activity (Candida albicans [6]): Active
- Activity (Streptococcus mutans [7]): Active
- MIC (Listeria monocytogenes): > 192 µg/mL
- MIC (Staphylococcus aureus): > 192 µg/mL
- MIC (Pseudomonas aeruginosa): > 192 µg/mL
- MIC (Escherichia coli): > 192 µg/mL
- Activity (Streptococcus mutans [8]): inactive
- Activity (Candida albicans [9]): inactive
- inhibition (Streptococcus mutans [2]): Active
- inhibition (Actinomyces naeslundii [10]): inactive
- Activity (Actinomyces naeslundii [11]): Active
- Activity (Candida albicans [12]): Active
- growth inhibition (GI) (Candida albicans [13]): Non-Toxic
- Activity (Candida albicans [14]): Dose-dependent effect
- growth inhibition (GI) (Streptococcus mutans [3]): Non-Toxic
- inhibition (Actinomyces naeslundii [15]): Active

Structure (SMILES): O=C1N[C@H](Cc2ccccc2)C(=O)N[C@H]1Cc1ccccc1
- inhibition (Fusobacterium nucleatum): inactive
- inhibition (Porphyromonas gingivalis): inactive
- inhibition [1]: inactive
- MIC (Listeria monocytogenes): > 192 µg/mL
- MIC (Staphylococcus aureus): > 192 µg/mL
- MIC (Pseudomonas aeruginosa): > 192 µg/mL
- MIC (Escherichia coli): > 192 µg/mL
- inhibition (Streptococcus mutans [2]): inactive
- growth inhibition (GI) (Streptococcus mutans [3]): Non-Toxic

Structure (SMILES): O=C1N[C@H](Cc2ccc(OCc3ccccc3)cc2)C(=O)N[C@@H]1Cc1ccc(OCc2ccccc2)cc1
- inhibition (Fusobacterium nucleatum): inactive
- inhibition (Porphyromonas gingivalis): inactive
- Activity (Streptococcus mutans [4]): Active
- inhibition [1]: inactive
- inhibition (Actinomyces naeslundii [5]): Active
- Activity (Candida albicans [6]): Active
- Activity (Streptococcus mutans [7]): Active
- MIC (Listeria monocytogenes): > 192 µg/mL
- MIC (Staphylococcus aureus): > 192 µg/mL
- MIC (Pseudomonas aeruginosa): > 192 µg/mL
- MIC (Escherichia coli): > 192 µg/mL
- Activity (Streptococcus mutans [8]): inactive
- Activity (Candida albicans [9]): inactive
- inhibition (Streptococcus mutans [2]): Active
- inhibition (Actinomyces naeslundii [10]): inactive
- Activity (Actinomyces naeslundii [11]): Active
- Activity (Candida albicans [12]): Active
- growth inhibition (GI) (Candida albicans [13]): Non-Toxic
- Activity (Candida albicans [14]): Dose-dependent effect
- growth inhibition (GI) (Streptococcus mutans [3]): Non-Toxic
- inhibition (Actinomyces naeslundii [15]): Active

Structure (SMILES): O=C1N[C@H](Cc2ccccc2)C(=O)N[C@H]1Cc1ccc(OCc2ccccc2)cc1
- inhibition (Fusobacterium nucleatum): inactive
- inhibition (Porphyromonas gingivalis): inactive
- Activity (Streptococcus mutans [4]): Active
- inhibition [1]: inactive
- inhibition (Actinomyces naeslundii [5]): Active
- Activity (Candida albicans [6]): Active
- Activity (Streptococcus mutans [7]): Active
- MIC (Listeria monocytogenes): > 192 µg/mL
- MIC (Staphylococcus aureus): > 192 µg/mL
- MIC (Pseudomonas aeruginosa): > 192 µg/mL
- MIC (Escherichia coli): > 192 µg/mL
- Activity (Streptococcus mutans [8]): inactive
- Activity (Candida albicans [9]): inactive
- inhibition (Streptococcus mutans [2]): Active
- inhibition (Actinomyces naeslundii [10]): inactive
- Activity (Actinomyces naeslundii [11]): Active
- Activity (Candida albicans [12]): Active
- growth inhibition (GI) (Candida albicans [13]): Non-Toxic
- Activity (Candida albicans [14]): Dose-dependent effect
- growth inhibition (GI) (Streptococcus mutans [3]): Non-Toxic
- inhibition (Actinomyces naeslundii [15]): Active

Structure (SMILES): C[C@H]1NC(=O)[C@@H](Cc2ccc(OCc3ccccc3)cc2)NC1=O
- inhibition (Fusobacterium nucleatum): inactive
- inhibition (Porphyromonas gingivalis): inactive
- inhibition (Streptococcus mutans [2]): inactive
- growth inhibition (GI) (Streptococcus mutans [3]): Non-Toxic

Structure (SMILES): C[C@@H]1NC(=O)[C@H](C)NC1=O
- inhibition (Fusobacterium nucleatum): inactive
- inhibition (Porphyromonas gingivalis): inactive
- inhibition (Streptococcus mutans [2]): inactive
- growth inhibition (GI) (Streptococcus mutans [3]): Non-Toxic

Structure (SMILES): CC(C)C[C@H]1NC(=O)[C@@H](Cc2ccccc2)NC1=O
- inhibition (Fusobacterium nucleatum): inactive
- inhibition (Porphyromonas gingivalis): inactive
- inhibition (Streptococcus mutans [2]): inactive
- growth inhibition (GI) (Streptococcus mutans [3]): Non-Toxic

Structure (SMILES): CC(C)C[C@H]1NC(=O)[C@H](Cc2ccccc2)NC1=O
- inhibition (Fusobacterium nucleatum): inactive
- inhibition (Porphyromonas gingivalis): inactive
- inhibition (Streptococcus mutans [2]): inactive
- growth inhibition (GI) (Streptococcus mutans [3]): Non-Toxic

Structure (SMILES): N=C(N)NCCC[C@@H]1NC(=O)[C@H](Cc2ccc(O)cc2)NC1=O
- inhibition (Fusobacterium nucleatum): inactive
- inhibition (Porphyromonas gingivalis): inactive
- inhibition (Streptococcus mutans [2]): inactive
- growth inhibition (GI) (Streptococcus mutans [3]): Non-Toxic

Structure (SMILES): O=C1N[C@H](Cc2ccccc2)C(=O)N[C@@H]1COCc1ccccc1
- inhibition (Fusobacterium nucleatum): inactive
- inhibition (Porphyromonas gingivalis): inactive
- inhibition (Streptococcus mutans [2]): inactive
- growth inhibition (GI) (Streptococcus mutans [3]): Non-Toxic

Structure (SMILES): C[C@@H]1NC(=O)[C@H](CCC(N)=O)NC1=O
- inhibition (Fusobacterium nucleatum): inactive
- inhibition (Porphyromonas gingivalis): inactive
- inhibition (Streptococcus mutans [2]): inactive
- growth inhibition (GI) (Streptococcus mutans [3]): Non-Toxic

Structure (SMILES): CC(C)[C@H]1NC(=O)[C@@H](C(C)C)NC1=O
- inhibition (Fusobacterium nucleatum): inactive
- inhibition (Porphyromonas gingivalis): inactive
- inhibition (Streptococcus mutans [2]): inactive
- growth inhibition (GI) (Streptococcus mutans [3]): Non-Toxic
